This is an account of results in ChEMBL document CHEMBL1255224, “Design and synthesis of prolylcarboxypeptidase (PrCP) inhibitors to validate PrCP as a potential target for obesity” (J Med Chem, 2010).

Data set [1] is described as follows: Half life in mouse. To be noted: in vivo. It counts as ADME, organism-based.
The nature of data set [2]: Clearance in mouse. It counts as ADME, organism-based. The conditions noted are these: in vivo.
The nature of data set [3]: Volume of distribution in mouse. It counts as ADME, organism-based. To be noted: in vivo.
Data set [4] deals with T1, Lysosomal Pro-X carboxypeptidase (Mus musculus, UniProt Q7TMR0).
T1 sequence (Q7TMR0 whole entry): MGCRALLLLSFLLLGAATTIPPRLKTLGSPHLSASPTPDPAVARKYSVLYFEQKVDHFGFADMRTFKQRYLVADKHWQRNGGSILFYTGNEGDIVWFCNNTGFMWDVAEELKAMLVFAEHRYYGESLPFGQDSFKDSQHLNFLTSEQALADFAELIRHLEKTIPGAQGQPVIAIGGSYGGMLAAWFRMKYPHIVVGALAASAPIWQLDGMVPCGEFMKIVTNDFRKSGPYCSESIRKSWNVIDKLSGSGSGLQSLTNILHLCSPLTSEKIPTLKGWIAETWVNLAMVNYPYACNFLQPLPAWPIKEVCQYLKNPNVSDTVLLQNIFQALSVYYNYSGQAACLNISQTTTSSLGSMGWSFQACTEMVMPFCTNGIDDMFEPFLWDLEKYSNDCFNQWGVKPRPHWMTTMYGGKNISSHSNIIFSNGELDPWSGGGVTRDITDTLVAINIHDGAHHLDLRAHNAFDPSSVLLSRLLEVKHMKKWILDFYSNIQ
Briefly: Inhibition of mouse PrCP by FRET.

A short description of data set [5]: Oral bioavailability in mouse. It counts as ADME, organism-based. To be noted: in vivo.
Data set [6] deals with T1, Lysosomal Pro-X carboxypeptidase. Briefly: Inhibition of mouse PrCP by FRET in presence of 1% mouse serum albumin.
Data set [7] deals with Blood. Description: Drug level in C57BL/6NT wild type mouse blood at 100 mg/kg, po. It counts as ADME, organism-based. Further details: dose 100 mg/kg, route oral. To be noted: in vivo, read-out: Activity.
For data set [8], the system named is Brain. Description: Drug level in C57BL/6NT wild type mouse brain at 100 mg/kg, po. It counts as ADME, organism-based. Further details: dose 100 mg/kg, route oral. To be noted: in vivo, read-out: Activity.
The test system of data set [9] is Brain. Description: Drug level in C57BL/6NT PrCP knock out mouse brain at 100 mg/kg, po. It counts as ADME, organism-based. Further details: dose 100 mg/kg, route oral. To be noted: in vivo, read-out: Activity.
The subject of data set [10] is Blood. Description: Drug level in C57BL/6NT PrCP knock out mouse blood at 100 mg/kg, po. It counts as ADME, organism-based. Further details: dose 100 mg/kg, route oral. The conditions noted are these: in vivo, read-out: Activity.
Data set [11] relates to Mus musculus. Description: Antiobesity activity against C57BL/6NT mouse overexpressing PrCP assessed as reduction in body weight at 100 mg/kg, po. It counts as functional. Details: scale not given: the % may be the effect or the level left.
Data set [12] deals with Mus musculus. Description: Antiobesity activity against C57BL/6NT mouse PrCP knock out model assessed as reduction in body weight at 100 mg/kg, po for 5 days. It counts as functional. Further details: scale not given: the % may be the effect or the level left.

By half-life is commonly meant the time needed for the level to fall by half in the phase considered. One may read the clearance as the rate of elimination divided by the concentration. One may read the Vd as the apparent volume that relates the amount in the body to the concentration in plasma or blood. The term IC50 denotes the concentration that inhibits the measured activity by half. Usually bioavailability stands for the share of a dose that reaches the circulation, judged against a reference dose that is usually intravenous. Take `C[C@@H](c1ccccc1)[C@H](NC(=O)C(C)(C)O)C(=O)N1CCC[C@H]1c1nc2cc(Cl)c(Cl)cc2[nH]1`: in data set [1], the half-life was 0.5 h. For the same compound, the clearance in data set [2] was determined as 72 mL/min/kg. In [3], this compound returned a Vd of 2.4 L/kg. The results for the IC50 in data set [4] and in [6] were 29 nM and 98 nM, respectively. Moreover, the bioavailability in data set [5] was found to be 4%.

`Cc1cccc2[nH]c([C@@H]3[C@@H]4C[C@@H]4CN3C(=O)COc3ccc(-c4ccccc4)cc3)nc12`: in [1], the half-life was 0.6 h. Further, the clearance in data set [2] is 41 mL/min/kg. The same compound registered a Vd in data set [3] of 2.3 L/kg. In data set [5], this compound yielded a bioavailability of 20%.

`O=C(CCc1ccc(-c2ccccc2)cc1)N1CCC[C@H]1c1ncc(-c2cccc(F)c2)[nH]1`: the half-life in data set [1] is 0.8 h. Further, the clearance in data set [2] is 75 mL/min/kg. Also, the Vd in data set [3] was 4.6 L/kg. Besides, in [4], inhibition was half-maximal at 871 nM (IC50). Also, the bioavailability in data set [5] was found to be 5%.

`CC(C)(O)C(=O)N[C@@H](Cc1ccc(-c2ccccc2)cc1)C(=O)N1CCC[C@H]1c1ncc(C(C)(C)C)[nH]1` had a half-life in [1] of 0.4 h. Moreover, the clearance in [2] is 117 mL/min/kg. The compound also displayed a Vd in data set [3] of 2.9 L/kg. Further, the IC50 worked out at 16 nM in data set [4] and 15 nM in data set [6]. The compound also displayed a bioavailability in data set [5] of 0%.

As for `CC(C)(CN)C(=O)N[C@@H](Cc1ccc(-c2ccccc2)cc1)C(=O)N1CCC[C@H]1c1nc2cc(Cl)c(Cl)cc2[nH]1`, the half-life in [1] is 4.3 h. Further, in [2], the clearance turned out to be 23 mL/min/kg. For the same compound, in data set [3], the Vd amounted to 7.9 L/kg. The compound also registered a bioavailability in data set [5] of 0%.

Regarding `C[C@@H](c1ccc(-c2ccccc2)cc1)[C@H](NC(=O)C(C)(C)N)C(=O)N1CCC[C@H]1c1nc2cc(Cl)c(Cl)cc2[nH]1`, the concentration with Blood [7] amounted to 380 nM; in the data set on Brain [8], 50 nM; with Brain [9] it was 40 nM; in the data set with Blood [10], 430 nM. Moreover, in data set [1], the half-life was 2.3 h. This compound also registered a clearance in data set [2] of 23 mL/min/kg. This compound also displayed a Vd in data set [3] of 4.4 L/kg. In addition, the IC50 amounted to 2 nM in data set [4] and 8 nM in [6]. The Activity was found to be 4.9% with Mus musculus [11] and 1.1% with Mus musculus [12]. The bioavailability in data set [5] was determined as 13%.

In data set [1], `Cn1cc(-c2ccc(C[C@H](NC(=O)C(C)(C)N)C(=O)N3CCC[C@H]3c3nc4cc(Cl)c(Cl)cc4[nH]3)cc2)ccc1=O` had a half-life of 2.6 h. In data set [2], this compound registered a clearance of 70 mL/min/kg. This compound also yielded a Vd in [3] of 14 L/kg. In addition, the bioavailability in data set [5] was determined as 0%.

For `C[C@@H](c1ccccc1)[C@H](NC(=O)C(C)(C)N)C(=O)N1CCC[C@H]1c1nc2cc(Cl)c(Cl)cc2[nH]1`, in data set [1], the half-life was 1.5 h. The same compound came in with a clearance in [2] of 17 mL/min/kg. Besides, the Vd in data set [3] was determined as 1.5 L/kg. For the same compound, the IC50 in data set [4] was determined as 32 nM; in data set [6], 60 nM. In data set [5], this compound yielded a bioavailability of 41%.

For the compound `CC(C)(Cc1ccc(-c2ccccc2)cc1)C(=O)N1CCC[C@H]1c1nc(-c2cccc(F)c2)c[nH]1`, the half-life in [1] was 2.3 h. For the same compound, the clearance in data set [2] came to 92 mL/min/kg. Also, the Vd in data set [3] was found to be 8.8 L/kg. The bioavailability in [5] was determined as 5%.

In turn, `C[C@@H](c1ccc(-c2ccc(F)cc2)cc1)[C@H](NC(=O)C(C)(C)O)C(=O)N1CCC[C@H]1c1nc2cc(Cl)c(Cl)cc2[nH]1` gave a half-life in data set [1] of 0.8 h. Moreover, the clearance in data set [2] worked out at 23 mL/min/kg. The compound further showed a Vd in data set [3] of 1.2 L/kg. This compound yielded a bioavailability in [5] of 12%.

As to `COc1ccc(C[C@H](NC(=O)C(C)(C)N)C(=O)N2CC[C@H]2c2nc3cc(Cl)c(Cl)cc3[nH]2)cc1`, the half-life in [1] is 1.4 h. The compound further gave a clearance in data set [2] of 25 mL/min/kg. Further, the Vd in data set [3] was found to be 2.2 L/kg. Besides, the results for the IC50 in data set [4] and in [6] were 251 nM and 3320 nM, respectively. Also, the bioavailability in data set [5] worked out at 33%.

In data set [1], `CC(C)(Cc1ccc(-c2cccc(Cl)c2Cl)cc1)C(=O)N1CC(F)(F)C[C@H]1c1ncc(-c2cccc(Br)c2)[nH]1` showed a half-life of 9.6 h. The same compound came in with a clearance in [2] of 15 mL/min/kg. The Vd in [3] was 4 L/kg. In data set [5], the bioavailability amounted to 5%.

As to `Cc1ccccc1-c1c[nH]c([C@@H]2CCCN2C(=O)COc2ccc(-c3ccccc3)cc2)n1`, the half-life in data set [1] is 3.4 h. The compound also yielded a clearance in [2] of 54 mL/min/kg. Moreover, in data set [3], the Vd amounted to 4 L/kg. The bioavailability in data set [5] came out at 49%.

As to `CC(C)(O)C(=O)N[C@@H](Cc1ccc(-c2ccccc2)cc1)C(=O)N1CCC[C@H]1c1nc2cc(F)c(F)cc2[nH]1`, the half-life in data set [1] was 0.5 h. Moreover, in data set [2], the clearance was found to be 39 mL/min/kg. This compound displayed a Vd in data set [3] of 1.5 L/kg. Also, in data set [5], the bioavailability was 9%.

With `CC(C)(N)CC(=O)N[C@@H](Cc1ccc(-c2ccccc2)cc1)C(=O)N1CCC[C@H]1c1nc2cc(Cl)c(Cl)cc2[nH]1`, in data set [1], the half-life was 5.2 h. The compound also had a clearance in data set [2] of 14 mL/min/kg. Moreover, the Vd in data set [3] turned out to be 6.8 L/kg. Besides, the bioavailability in [5] is 0%.

In data set [1], `N#Cc1cccc(-c2ccc(CCC(=O)N3C[C@H](O)C[C@H]3c3nc(-c4cccc(Cl)c4)c[nH]3)cc2)c1` had a half-life of 0.6 h. Also, the clearance in data set [2] turned out to be 82 mL/min/kg. The compound further had a Vd in data set [3] of 2.2 L/kg. This compound also registered a bioavailability in data set [5] of 1%.

Compound `CC(C)(N)C(=O)N[C@@H](Cc1ccc(Cl)cc1)C(=O)N1CCC[C@H]1c1nc2cc(Cl)c(Cl)cc2[nH]1` gave a half-life in [1] of 3 h. The clearance in data set [2] was 7 mL/min/kg. In data set [3], this compound returned a Vd of 2.6 L/kg. In data set [5], this compound had a bioavailability of 100%.

On to `CC(C)(N)C(=O)N[C@@H](Cc1ccc(-c2ccccc2)cc1)C(=O)N1CCC[C@H]1c1nc2cc(Cl)c(Cl)cc2[nH]1`, for which the half-life in data set [1] is 2.8 h. The same compound came in with a clearance in data set [2] of 12 mL/min/kg. For the same compound, in [3], the Vd was found to be 2.7 L/kg. In addition, the values for the IC50 in data set [4] and in data set [6] were 15 nM and 789 nM, respectively. Also, the bioavailability in data set [5] was found to be 31%.

In turn, `CC(C)(N)C(=O)N[C@@H](Cc1ccc(-c2ccccc2)cc1)C(=O)N1CCC[C@H]1c1ncc(C(C)(C)C)[nH]1` had a half-life in [1] of 15 h. Besides, the clearance in data set [2] turned out to be 11 mL/min/kg. The Vd in data set [3] came out at 11 L/kg. Moreover, the IC50 in data set [4] was found to be 41 nM; in data set [6], 17 nM. In [5], this compound gave a bioavailability of 6%.
